Results reported in ChEMBL document CHEMBL1201862, “PubChem BioAssay data set” (2004).
Values joined by “and” are separate entries in the source; they are usually repeats but may differ in a detail not shown here. Equal values may be shown once.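 Method: 48-hour compound exposure of cells in 96-well plates, five concentrations, linear interpolation of endpoints. GI50: concentration for 50% inhibition of growth.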 Active and inactive are the calls of the source. Rule as the data show it: active = GI50 up to about 1.1 µM and inactive = higher.

Experiments:
Assay in all cases: NCI tumour cell line growth inhibition, 48 h
ACHN = system: ACHN
CCRF-CEM = system: CCRF-CEM
EKVX = system: EKVX
HCC 2998 = system: HCC 2998
HT-29 = system: HT-29
IGROV-1 = system: IGROV-1
MDA-MB-435 = system: MDA-MB-435
MDA-N = system: MDA-N
NCI/ADR-RES = system: NCI/ADR-RES
OVCAR-4 = system: OVCAR-4
PC-3 = system: PC-3
RPMI-8226 = system: RPMI-8226
SF-539 = system: SF-539
SK-MEL-28 = system: SK-MEL-28
SK-MEL-5 = system: SK-MEL-5
SR = system: SR
U-251 = system: U-251
DU-145 = system: DU-145
NCI-H226 = system: NCI-H226
OVCAR-3 = system: OVCAR-3

Row | Compound | GI50 (ACHN) | GI50 (CCRF-CEM) | GI50 (EKVX) | GI50 (HCC 2998) | GI50 (HT-29) | GI50 (IGROV-1) | GI50 (MDA-MB-435) | GI50 (MDA-N) | GI50 (NCI/ADR-RES) | GI50 (OVCAR-4) | GI50 (PC-3) | GI50 (RPMI-8226) | GI50 (SF-539) | GI50 (SK-MEL-28) | GI50 (SK-MEL-5) | GI50 (SR) | GI50 (U-251) | GI50 (DU-145) | GI50 (NCI-H226) | GI50 (OVCAR-3)
1 | CN(C)C12C=CC=CC3=C(c4ccccc4)C(c4ccccc4)=C(c4ccccc4)C31c1ccccc1C2 (configuration not stated) | > 100 µM (inactive) | > 100 µM (inactive) | > 100 µM (inactive) | > 100 µM (inactive) | > 100 µM (inactive) | > 100 µM (inactive) | > 100 µM (inactive) | > 100 µM (inactive) | > 100 µM (inactive) | > 100 µM (inactive) | > 100 µM (inactive) | > 100 µM (inactive) | > 100 µM (inactive) | > 100 µM (inactive) | > 100 µM (inactive) | > 100 µM (inactive) | > 100 µM (inactive) | – | – | –
2 | COC(=O)Cc1c(-c2c(CC(=O)OC)c3ccccc3n2C2OC(COC3OC(COC(C)=O)C(OC(C)=O)C(OC(C)=O)C3OC(C)=O)C(O)C(O)C2O)[nH]c2ccccc12 (configuration not stated) | > 100 µM (inactive) | > 100 µM (inactive) | > 100 µM (inactive) | – | > 100 µM (inactive) | 75.3 µM (inactive) | > 100 µM (inactive) | > 100 µM (inactive) | – | – | > 100 µM (inactive) | > 100 µM (inactive) | 51.5 µM (inactive) | > 100 µM (inactive) | > 100 µM (inactive) | > 100 µM (inactive) | 44.3 µM (inactive) | > 100 µM (inactive) | 61.4 µM (inactive) | > 100 µM (inactive)
3 | Cc1[nH]n(C2=NCCN2)c(=O)c1C | > 100 µM (inactive) | > 100 µM (inactive) | > 100 µM (inactive) | – | > 100 µM (inactive) | > 100 µM (inactive) | > 100 µM (inactive) | – | > 100 µM (inactive) | > 100 µM (inactive) | > 100 µM (inactive) | > 100 µM (inactive) | > 100 µM (inactive) | – | > 100 µM (inactive) | > 100 µM (inactive) | > 100 µM (inactive) | – | > 100 µM (inactive) | > 100 µM (inactive)
4 | O=P1(O)c2ccccc2CCc2ccccc21 | – | > 100 µM (inactive) | > 100 µM (inactive) | > 100 µM (inactive) | – | > 100 µM (inactive) | > 100 µM (inactive) | > 100 µM (inactive) | – | – | > 100 µM (inactive) | > 100 µM (inactive) | > 100 µM (inactive) | > 100 µM (inactive) | > 100 µM (inactive) | – | – | > 100 µM (inactive) | > 100 µM (inactive) | > 100 µM (inactive)
5 | COc1ccc(OC)c(/C=C/[N+](=O)[O-])c1 | 1.82 µM (inactive) and 2.21 µM (inactive) | 1.01 µM (active) and 1.58 µM (inactive) | – | – | 3.47 µM (inactive) and 2.49 µM (inactive) | – | 2.37 µM (inactive) | 3.16 µM (inactive) | 2.96 µM (inactive) | 4.31 µM (inactive) and 2.8 µM (inactive) | – | 1.39 µM (inactive) and 845 nM (active) | 3.6 µM (inactive) and 2.89 µM (inactive) | 2.01 µM (inactive) and 3.48 µM (inactive) | 3.29 µM (inactive) and 2.33 µM (inactive) | – | 2.56 µM (inactive) and 3.76 µM (inactive) | 3.33 µM (inactive) and 3.03 µM (inactive) | – | 2.14 µM (inactive) and 1.75 µM (inactive)
6 | NCCCC1NC(=O)/C(=C(O)/C=C/C2CCC[C@@H]2CC2SCCS2)C1=O (some centres not stated) | > 100 µM (inactive) | 54.1 µM (inactive) | > 100 µM (inactive) | > 100 µM (inactive) | > 100 µM (inactive) | > 100 µM (inactive) | – | – | – | > 100 µM (inactive) | – | > 100 µM (inactive) | > 100 µM (inactive) | > 100 µM (inactive) | > 100 µM (inactive) | 58.5 µM (inactive) | > 100 µM (inactive) | – | 71.8 µM (inactive) | > 100 µM (inactive)
7 | C=CCc1c(C)nc(C)nc1N/N=C/C=C/c1ccccc1 | > 100 µM (inactive) | 44 µM (inactive) | 17.6 µM (inactive) | – | 30.8 µM (inactive) | 31.4 µM (inactive) | 23.6 µM (inactive) | 29.2 µM (inactive) | 23.9 µM (inactive) | 0.0435 µM (active) | 34.9 µM (inactive) | 21.9 µM (inactive) | 32.1 µM (inactive) | 41 µM (inactive) | 20.3 µM (inactive) | 22.6 µM (inactive) | 23.6 µM (inactive) | – | > 100 µM (inactive) | 19.4 µM (inactive)
8 | O=C(Cc1ccccc1CCO)NCCc1ccccc1 | > 100 µM (inactive) | > 100 µM (inactive) | > 100 µM (inactive) | > 100 µM (inactive) | > 100 µM (inactive) | > 100 µM (inactive) | > 100 µM (inactive) | – | > 100 µM (inactive) | > 100 µM (inactive) | > 100 µM (inactive) | > 100 µM (inactive) | > 100 µM (inactive) | > 100 µM (inactive) | > 100 µM (inactive) | > 100 µM (inactive) | > 100 µM (inactive) | > 100 µM (inactive) | > 100 µM (inactive) | > 100 µM (inactive)
9 | CCOC(=O)C1=C(C)N(Cc2ccc(Cl)cc2Cl)C2(O)C(OC)CC(=O)C3C(=O)N(c4ccccc4)C(=O)C132 (configuration not stated) | 3.12 µM (inactive) | 0.466 µM (active) | 3.4 µM (inactive) | 2.08 µM (inactive) | 1.75 µM (inactive) | 4.34 µM (inactive) | 2.63 µM (inactive) | – | 2.01 µM (inactive) | 1.6 µM (inactive) | 2.64 µM (inactive) | 1.21 µM (inactive) | 2.86 µM (inactive) | 1.97 µM (inactive) | 3.97 µM (inactive) | 1.57 µM (inactive) | 1.5 µM (inactive) | 1.06 µM (active) | 3.33 µM (inactive) | 1.33 µM (inactive)
10 | COc1cc2cc[n+]3c4cc(OC)c(OC)cc4c(C)cc3c2cc1OC | > 100 µM (inactive) | > 100 µM (inactive) | > 100 µM (inactive) | 61.8 µM (inactive) | > 100 µM (inactive) | > 100 µM (inactive) | – | – | – | > 100 µM (inactive) | – | > 100 µM (inactive) | > 100 µM (inactive) | > 100 µM (inactive) | > 100 µM (inactive) | > 100 µM (inactive) | 70 µM (inactive) | – | > 100 µM (inactive) | > 100 µM (inactive)
11 | O=C1[C@@H]2C(c3ccccc3F)=NO[C@@H]2C(=O)N1c1ccc(Cc2ccc(N3C(=O)[C@H]4C(c5ccccc5F)=NO[C@H]4C3=O)cc2)cc1 | > 100 µM (inactive) | 16 µM (inactive) | > 100 µM (inactive) | > 100 µM (inactive) | > 100 µM (inactive) | > 100 µM (inactive) | – | – | – | > 100 µM (inactive) | – | 29.4 µM (inactive) | > 100 µM (inactive) | > 100 µM (inactive) | > 100 µM (inactive) | 34.1 µM (inactive) | > 100 µM (inactive) | – | > 100 µM (inactive) | > 100 µM (inactive)
12 | CCc1cn2c(/C=N/N=C(N)N)c(-c3cc(C)c(Cl)cc3Cl)nc2s1 | 1.68 µM (inactive) | 0.209 µM (active) | – | – | 1.22 µM (inactive) | 1.69 µM (inactive) | 1.41 µM (inactive) | – | 3.95 µM (inactive) | 1.42 µM (inactive) | 1.56 µM (inactive) | 1.24 µM (inactive) | 1.74 µM (inactive) | 1.48 µM (inactive) | 1.63 µM (inactive) | 1.56 µM (inactive) | 1.53 µM (inactive) | 1.64 µM (inactive) | 1.26 µM (inactive) | 1.48 µM (inactive)
13 | CN(C)CCNC(=O)c1cccc2nc3c(C(=O)NCCN(C)C)cccc3nc12 | 0.668 µM (active) | 0.59 µM (active) | 1.49 µM (inactive) | 1.15 µM (inactive) | 0.321 µM (active) | 1.78 µM (inactive) | 1.21 µM (inactive) | – | 5.15 µM (inactive) | 0.589 µM (active) | 0.76 µM (active) | 1.19 µM (inactive) | 1.92 µM (inactive) | 2.03 µM (inactive) | 1.56 µM (inactive) | 0.368 µM (active) | 0.632 µM (active) | 1.37 µM (inactive) | 1.46 µM (inactive) | 1.7 µM (inactive)
14 | CCOC(=O)CCn1ncc(Cl)c(Cl)c1=O | 17 µM (inactive) | 2.9 µM (inactive) | 18.7 µM (inactive) | 3.93 µM (inactive) | 4.24 µM (inactive) | 11.1 µM (inactive) | – | – | – | 1.54 µM (inactive) | – | 2.38 µM (inactive) | 13.9 µM (inactive) | 2.65 µM (inactive) | 11.8 µM (inactive) | 2.89 µM (inactive) | 5.89 µM (inactive) | – | 10.9 µM (inactive) | 3.57 µM (inactive)
15 | COc1ccc(NC(=O)C2=C(SC)C(=O)N=C2N)cc1 | > 100 µM (inactive) | > 100 µM (inactive) | > 100 µM (inactive) | > 100 µM (inactive) | > 100 µM (inactive) | 61.7 µM (inactive) | > 100 µM (inactive) | – | > 100 µM (inactive) | > 100 µM (inactive) | > 100 µM (inactive) | > 100 µM (inactive) | – | > 100 µM (inactive) | > 100 µM (inactive) | 40.6 µM (inactive) | > 100 µM (inactive) | > 100 µM (inactive) | > 100 µM (inactive) | –
16 | Cc1cc(N(CCC#N)CCC#N)ccc1/C=C1\N=C(c2cc([N+](=O)[O-])ccc2Cl)N(c2cccc(Cl)c2)C1=O | > 100 µM (inactive) | 71.6 µM (inactive) | 23.8 µM (inactive) | > 100 µM (inactive) | 45.2 µM (inactive) | > 100 µM (inactive) | – | – | – | > 100 µM (inactive) | – | > 100 µM (inactive) | > 100 µM (inactive) | > 100 µM (inactive) | > 100 µM (inactive) | 94.4 µM (inactive) | > 100 µM (inactive) | – | > 100 µM (inactive) | > 100 µM (inactive)
